Reference: patent US20100279990A1, “ANTIPROLIFERATIVE COMPOUNDS, COMPOSITIONS AND METHODS OF USE” (RAMOT AT TEL-AVIV UNIVERSITY LTD., priority 2006, published 2010)
Like-named read-outs stand apart in the source and are kept apart here.

Tests used:
LXF H460 = assay: Monolayer Assay, PI: LXF H460 (Lung); assay type: cell-based, human
Text: (§1) This example illustrates cell proliferation data in the form of IC50, IC70 and IC90 values obtained by exposure of human cancer cell-lines to compound (Ia). […].

[1] = test system: human Jurkat lymphoma cells; assay: Viability of human Jurkat lymphoma cells, alamar blue staining; assay type: cell-based; conditions: for IC50: Homo sapiens, 48 hr, alamar blue
Description: This example illustrates cell viability data derived from the incubation of a human. […] The results are depicted in FIGS. 1A, 1B, and 1C. […] See Nociari et al., J. Immunol. […] Each point represents the mean+/−SE of 4 determinations.

MEXF 462NL = assay: Monolayer Assay, PI: MEXF 462NL (Melanoma); assay type: cell-based, human
Text: as §1

[2] = test system: Caspase 3 activity of LS1034 human colon MDR carcinoma cells; assay: Caspase-3 activity in LS1034 human colon MDR carcinoma cells; assay type: cell-based; conditions: 10 or 20 μM, 4 hr after exposure
Description: Caspase 3 activity was measured by an enzymatic fluorimetric method using a fluorigenic substrate (Ac-DEVD-AMC), which produces blue fluorescence detected at 360 nm wavelength. […] When AMC is cleaved from the substrate by caspase-3, and caspase-3-like enzymes, it produces a yellow-green fluorescence, which can be monitored by a fluorimeter at 460 nm. The amount of yellow green fluorescence is proportional to the activity of caspase-3 in the cell extract sample.
Whole cell lysate was added to a buffer containing 100 μM peptide substrate, 100 mM HEPES, 10% glycerol, 1 mM EDTA and 10 mM dithiothreitol. Measurements were taken every 5 min for 80 min. These experiments were also monitored in the presence of a specific caspase-3 inhibitor, DEVD-AMC-CHO, which was added after 45 or 60 min to the reaction mixture, to ascertain the specificity of the enzyme.

BXF 1218L = assay: Monolayer Assay, PI: BXF 1218L (Bladder); assay type: cell-based, human
Text: as §1

human tumor cell lines = assay: In vitro antitumor activity in panel of 37 human tumor cell lines (Monolayer Assay, PI), summary; assay type: cell-based
MEXF 520L = assay: Monolayer Assay, PI: MEXF 520L (Melanoma); assay type: cell-based, human
Text: as §1

CNXF SF268 = assay: Monolayer Assay, PI: CNXF SF268; assay type: cell-based, human
Text: as §1

[3] = test system: human keratinocytes (HaCat cells); assay: Viability of human keratinocytes (HaCat cells), neutral red staining; assay type: cell-based; conditions: 24 hr, read-out: IC50, cell viability
[4] = test system: BCL2 expression in human Jurkat lymphoma cells; assay: Western blot of BCL2 expression in human Jurkat lymphoma cell-line; assay type: cell-based; conditions: FIG. 10
Text: This example illustrates western blot data corresponding to BCL2 expression in a human Jurkat lymphoma cell-line treated with different concentrations of compound (Ia). The results are depicted in FIG. 10.

LXF 1121L = assay: Monolayer Assay, PI: LXF 1121L (Lung); assay type: cell-based, human
Text: as §1

MEXF 394NL = assay: Monolayer Assay, PI: MEXF 394NL (Melanoma); assay type: cell-based, human
Text: as §1

BXF T24 = assay: Monolayer Assay, PI: BXF T24 (Bladder); assay type: cell-based, human
Text: as §1

RXF 486L = assay: Monolayer Assay, PI: RXF 486L (Renal); assay type: cell-based, human
Text: as §1

[5] = mean over human cancer cell-lines

SMILES: CN[C@H]1CC[C@@H](c2ccc(Cl)c(Cl)c2)c2ccc(C#CCCCO)cc21 [compound (Ia), (1S-cis)-4-(3,4-dichlorophenyl)-7-(5-hydroxy-1-pentyn-1-yl)-1,2,3,4-tetrahydro-N-methyl-1-naphthalenamine hydroiodide]
- Test/Control (%) (LXF H460; 2.3 μg/ml): 95%
- Test/Control activity class (LXF H460; 2.3 μg/ml): − (− (T/C = 50))
- Test/Control (%) (LXF H460; 7.5 μg/ml): 2%
- Test/Control activity class (LXF H460; 7.5 μg/ml): +++ (+++ (T/C < 10))
- Test/Control (%) (LXF H460; 23. μg/ml): 1%
- Test/Control activity class (LXF H460; 23. μg/ml): +++ (+++ (T/C < 10))
- Test/Control (%) (LXF H460; 75. μg/ml): 1%
- Test/Control activity class (LXF H460; 75. μg/ml): +++ (+++ (T/C < 10))
- Test/Control (%) (LXF H460; .75 μg/ml): 101%
- Test/Control activity class (LXF H460; .75 μg/ml): − (− (T/C = 50))
- IC50 ([1]; FIG. 1A, read-out: IC50, anti-proliferative activity): 12.5 µM
- IC50 ([1]; FIG. 1B, read-out: IC50, decrease in cell viability): 16.2 µM
- potency compared with sertraline ([1]; lower concentrations (1-10 μM), FIG. 1B): higher potency than sertraline
- Test/Control (%) (MEXF 462NL; 2.3 μg/ml): 107%
- Test/Control activity class (MEXF 462NL; 2.3 μg/ml): − (− (T/C = 50))
- Test/Control (%) (MEXF 462NL; 7.5 μg/ml): 20%
- Test/Control activity class (MEXF 462NL; 7.5 μg/ml): ++ (++ (10 <= T/C < 30))
- Test/Control (%) (MEXF 462NL; 23. μg/ml): 2%
- Test/Control activity class (MEXF 462NL; 23. μg/ml): +++ (+++ (T/C < 10))
- Test/Control (%) (MEXF 462NL; 75. μg/ml): 2%
- Test/Control activity class (MEXF 462NL; 75. μg/ml): +++ (+++ (T/C < 10))
- Test/Control (%) (MEXF 462NL; .75 μg/ml): 102%
- Test/Control activity class (MEXF 462NL; .75 μg/ml): − (− (T/C = 50))
- caspase-3 activity [2]: dose dependent increase in the activity of caspase-3
- Test/Control (%) (BXF 1218L; 2.3 μg/ml): 97%
- Test/Control activity class (BXF 1218L; 2.3 μg/ml): − (− (T/C = 50))
- Test/Control (%) (BXF 1218L; 7.5 μg/ml): 92%
- Test/Control activity class (BXF 1218L; 7.5 μg/ml): − (− (T/C = 50))
- Test/Control (%) (BXF 1218L; 23. μg/ml): 4%
- Test/Control activity class (BXF 1218L; 23. μg/ml): +++ (+++ (T/C < 10))
- Test/Control (%) (BXF 1218L; 75. μg/ml): 5%
- Test/Control activity class (BXF 1218L; 75. μg/ml): +++ (+++ (T/C < 10))
- Test/Control (%) (BXF 1218L; .75 μg/ml): 101%
- Test/Control activity class (BXF 1218L; .75 μg/ml): − (− (T/C = 50))
- active*/total cell lines (human tumor cell lines; 2.3 μg/ml): 0/37
- active*/total cell lines, percent (human tumor cell lines; 2.3 μg/ml): 0%
- active*/total cell lines (human tumor cell lines; 7.5 μg/ml): 26/37
- active*/total cell lines, percent (human tumor cell lines; 7.5 μg/ml (text: concentration of 7.5), hydroiodide): 70%
- active*/total cell lines (human tumor cell lines; 23. μg/ml): 37/37
- active*/total cell lines, percent (human tumor cell lines; 23. μg/ml): 100%
- active*/total cell lines (human tumor cell lines; 75. μg/ml): 37/37
- active*/total cell lines, percent (human tumor cell lines; 75. μg/ml): 100%
- active*/total cell lines (human tumor cell lines; .75 μg/ml): 0/37
- active*/total cell lines, percent (human tumor cell lines; .75 μg/ml): 0%
- IC50 (human tumor cell lines; [5]): 4.9 µM
- mean IC70 (human tumor cell lines; [5]): 6.9 µM
- Test/Control (%) (MEXF 520L; 2.3 μg/ml): 83%
- Test/Control activity class (MEXF 520L; 2.3 μg/ml): − (− (T/C = 50))
- Test/Control (%) (MEXF 520L; 7.5 μg/ml): 8%
- Test/Control activity class (MEXF 520L; 7.5 μg/ml): ++ (++ (10 <= T/C < 30))
- Test/Control (%) (MEXF 520L; 23. μg/ml): 2%
- Test/Control activity class (MEXF 520L; 23. μg/ml): +++ (+++ (T/C < 10))
- Test/Control (%) (MEXF 520L; 75. μg/ml): 4%
- Test/Control activity class (MEXF 520L; 75. μg/ml): +++ (+++ (T/C < 10))
- Test/Control (%) (MEXF 520L; .75 μg/ml): 102%
- Test/Control activity class (MEXF 520L; .75 μg/ml): − (− (T/C = 50))
- Test/Control (%) (CNXF SF268; 2.3 μg/ml): 70%
- Test/Control activity class (CNXF SF268; 2.3 μg/ml): − (− (T/C = 50))
- Test/Control (%) (CNXF SF268; 7.5 μg/ml): 5%
- Test/Control activity class (CNXF SF268; 7.5 μg/ml): +++ (+++ (T/C < 10))
- Test/Control (%) (CNXF SF268; 23. μg/ml): 4%
- Test/Control activity class (CNXF SF268; 23. μg/ml): +++ (+++ (T/C < 10))
- Test/Control (%) (CNXF SF268; 75. μg/ml): 3%
- Test/Control activity class (CNXF SF268; 75. μg/ml): +++ (+++ (T/C < 10))
- Test/Control (%) (CNXF SF268; .75 μg/ml): 91%
- Test/Control activity class (CNXF SF268; .75 μg/ml): − (− (T/C = 50))
- IC50 [3]: 18.5 µM
- BCL2 expression [4]: rapid dose dependent decrease in the levels of the protooncogene Bcl2
- Test/Control (%) (LXF 1121L; 2.3 μg/ml): 104%
- Test/Control activity class (LXF 1121L; 2.3 μg/ml): − (− (T/C = 50))
- Test/Control (%) (LXF 1121L; 7.5 μg/ml): 72%
- Test/Control activity class (LXF 1121L; 7.5 μg/ml): − (− (T/C = 50))
- Test/Control (%) (LXF 1121L; 23. μg/ml): 2%
- Test/Control activity class (LXF 1121L; 23. μg/ml): +++ (+++ (T/C < 10))
- Test/Control (%) (LXF 1121L; 75. μg/ml): 1%
- Test/Control activity class (LXF 1121L; 75. μg/ml): +++ (+++ (T/C < 10))
- Test/Control (%) (LXF 1121L; .75 μg/ml): 103%
- Test/Control activity class (LXF 1121L; .75 μg/ml): − (− (T/C = 50))
- Test/Control (%) (MEXF 394NL; 2.3 μg/ml): 59%
- Test/Control activity class (MEXF 394NL; 2.3 μg/ml): − (− (T/C = 50))
- Test/Control (%) (MEXF 394NL; 7.5 μg/ml): 3%
- Test/Control activity class (MEXF 394NL; 7.5 μg/ml): +++ (+++ (T/C < 10))
- Test/Control (%) (MEXF 394NL; 23. μg/ml): 2%
- Test/Control activity class (MEXF 394NL; 23. μg/ml): +++ (+++ (T/C < 10))
- Test/Control (%) (MEXF 394NL; 75. μg/ml): 2%
- Test/Control activity class (MEXF 394NL; 75. μg/ml): +++ (+++ (T/C < 10))
- Test/Control (%) (MEXF 394NL; .75 μg/ml): 99%
- Test/Control activity class (MEXF 394NL; .75 μg/ml): − (− (T/C = 50))
- Test/Control (%) (BXF T24; 2.3 μg/ml): 93%
- Test/Control activity class (BXF T24; 2.3 μg/ml): − (− (T/C = 50))
- Test/Control (%) (BXF T24; 7.5 μg/ml): 53%
- Test/Control activity class (BXF T24; 7.5 μg/ml): − (− (T/C = 50))
- Test/Control (%) (BXF T24; 23. μg/ml): 2%
- Test/Control activity class (BXF T24; 23. μg/ml): +++ (+++ (T/C < 10))
- Test/Control (%) (BXF T24; 75. μg/ml): 2%
- Test/Control activity class (BXF T24; 75. μg/ml): +++ (+++ (T/C < 10))
- Test/Control (%) (BXF T24; .75 μg/ml): 88%
- Test/Control activity class (BXF T24; .75 μg/ml): − (− (T/C = 50))
- Test/Control (%) (RXF 486L; 2.3 μg/ml): 103%
- Test/Control activity class (RXF 486L; 2.3 μg/ml): − (− (T/C = 50))
- Test/Control (%) (RXF 486L; 7.5 μg/ml): 81%
- Test/Control activity class (RXF 486L; 7.5 μg/ml): − (− (T/C = 50))
- Test/Control (%) (RXF 486L; 23. μg/ml): 9%
- Test/Control activity class (RXF 486L; 23. μg/ml): +++ (+++ (T/C < 10))
- Test/Control (%) (RXF 486L; 75. μg/ml): 5%
- Test/Control activity class (RXF 486L; 75. μg/ml): +++ (+++ (T/C < 10))
- Test/Control (%) (RXF 486L; .75 μg/ml): 102%
- Test/Control activity class (RXF 486L; .75 μg/ml): − (− (T/C = 50))
